# Reference: patent US20230398130A1, “METHODS AND COMPOSITIONS FOR DIFFERENTIATING STEM CELLS” (Massachusetts Institute of Technology, priority 2020, published 2023)
# Legend:
# [1] = system: ISC-enriched organoids; assay: Primary screen, 384-well 2.5-D organoid differentiation (ENR+CD, 6 days): carbachol-induced lysozyme secretion (LYZ.S); assay type: cell-based, murine; settings: for Z.LYZ.S: standard z score; for Z.LYZ.S / SSMD.LYZ.S / Dose.FC.LYZ.S: primary screen; for SSMD.LYZ.S: strictly standardized mean difference; for Dose.FC.LYZ.S: FC vs plate median; for Dose.FC.LYZ.S (log 2 fold change, carbachol-induced lysozyme secretion): vs plate median
# Text: (§1) High-throughput screening.
# [2] = system: ISC-enriched organoids; assay: Primary screen, 384-well 2.5-D organoid differentiation (ENR+CD, 6 days): basal lysozyme secretion (LYZ.NS); assay type: cell-based, murine; settings: for SSMD.LYZ.NS: strictly standardized mean difference; for SSMD.LYZ.NS / Dose.FC.LYZ.NS / Z.LYZ.NS: primary screen; for Dose.FC.LYZ.NS: FC vs plate median; for Dose.FC.LYZ.NS (log 2 fold change, basal lysozyme secretion): vs plate median
# Text: as §1
# [3] = system: ISC-enriched organoids; assay: Primary screen, 384-well 2.5-D organoid differentiation (ENR+CD, 6 days, Target Selective Inhibitor Library, vs whole-plate median): ATP (CellTiter-Glo 3D, CTG); settings: for Z.CTG / SSMD.CTG / Dose.FC.CTG: primary screen; for SSMD.CTG: strictly standardized mean difference; for Dose.FC.CTG: FC vs plate median; for Dose.FC.CTG (log 2 fold change, ATP): vs plate median
# [4] = 1st of the 4 dose lines of the treatment (dose not given)
# [5] = 2nd of the 4 dose lines of the treatment (dose not given)
# [6] = 3rd of the 4 dose lines of the treatment (dose not given)
# [7] = 4th of the 4 dose lines of the treatment (dose not given)
# [8] = Dose 10.00 uM, standard z score
# [9] = dose 0.08 uM, standard z score of FC
# [10] = dose 0.40 uM, standard z score of FC
# [11] = dose 2.00 uM, standard z score of FC
# [12] = dose 10.00 uM, standard z score of FC
structure (smiles),measurement,setting,value
C#Cc1cccc(Nc2ncnc3cc4c(cc23)OCCOCCOCCO4)c1 [Icotinib],Z.LYZ.S,[1]; [4],0.609
same,Z.LYZ.S,[1]; [5],−0.583
same,Z.LYZ.S,[1]; [6],−1.572
same,Z.LYZ.S,[1]; [7],−2.708
same,SSMD.LYZ.S,[1]; [4],0.689
same,SSMD.LYZ.S,[1]; [5],−0.544
same,SSMD.LYZ.S,[1]; [6],−1.726
same,SSMD.LYZ.S,[1]; [7],−1.917
same,SSMD.LYZ.NS,[2]; [4],0.227
same,SSMD.LYZ.NS,[2]; [5],−0.710
same,SSMD.LYZ.NS,[2]; [6],−1.321
same,SSMD.LYZ.NS,[2]; [7],−2.654
same,Z.CTG,"[3]; Dose 0.08 uM, standard z score",−0.047
same,Z.CTG,"[3]; Dose 0.40 uM, standard z score",−0.146
same,Z.CTG,"[3]; Dose 2.00 uM, standard z score",−0.970
same,Z.CTG,[3]; [8],−2.552
same,SSMD.CTG,[3]; [4],−0.065
same,SSMD.CTG,[3]; [5],−0.162
same,SSMD.CTG,[3]; [6],−0.865
same,SSMD.CTG,[3]; [7],−3.189
O=C(c1ccc(Nc2nccc(-c3cc4ccccc4s3)n2)cc1)N1CCC(N2CCCC2)CC1 [IKK-16 (IKK Inhibitor VII)],Dose.FC.LYZ.S,[1]; Dose 0.08 uM,0.092 log 2 fold change
same,Dose.FC.LYZ.S,[1]; Dose 0.40 uM,0.028 log 2 fold change
same,Dose.FC.LYZ.S,[1]; Dose 2.00 uM,−0.142 log 2 fold change
same,Dose.FC.LYZ.S,[1]; Dose 10.00 uM,−0.383 log 2 fold change
same,Z.LYZ.S,[1]; [4],0.593
same,Z.LYZ.S,[1]; [5],0.179
same,Z.LYZ.S,[1]; [6],−0.918
same,Z.LYZ.S,[1]; [7],−2.475
same,SSMD.LYZ.S,[1]; [4],0.496
same,SSMD.LYZ.S,[1]; [5],0.203
same,SSMD.LYZ.S,[1]; [6],−0.698
same,SSMD.LYZ.S,[1]; [7],−1.351
same,Dose.FC.LYZ.NS,[2]; Dose 0.08 uM,0.104 log 2 fold change
same,Z.LYZ.NS,"[2]; Dose 0.08 uM, standard z score",0.903
same,Dose.FC.LYZ.NS,[2]; Dose 0.40 uM,0.020 log 2 fold change
same,Z.LYZ.NS,"[2]; Dose 0.40 uM, standard z score",0.176
same,Dose.FC.LYZ.NS,[2]; Dose 2.00 uM,−0.081 log 2 fold change
same,Z.LYZ.NS,"[2]; Dose 2.00 uM, standard z score",−0.708
same,Dose.FC.LYZ.NS,[2]; Dose 10.00 uM,−0.291 log 2 fold change
same,Z.LYZ.NS,[2]; [8],−2.531
same,SSMD.LYZ.NS,[2]; [4],0.817
same,SSMD.LYZ.NS,[2]; [5],0.207
same,SSMD.LYZ.NS,[2]; [6],−0.481
same,SSMD.LYZ.NS,[2]; [7],−2.119
same,Dose.FC.CTG,[3]; Dose 0.08 uM,0.058 log 2 fold change
same,Z.CTG,"[3]; Dose 0.08 uM, standard z score",0.139
same,Dose.FC.CTG,[3]; Dose 0.40 uM,−0.051 log 2 fold change
same,Z.CTG,"[3]; Dose 0.40 uM, standard z score",−0.122
same,Dose.FC.CTG,[3]; Dose 2.00 uM,−0.431 log 2 fold change
same,Z.CTG,"[3]; Dose 2.00 uM, standard z score",−1.029
same,Dose.FC.CTG,[3]; Dose 10.00 uM,−0.950 log 2 fold change
same,Z.CTG,[3]; [8],−2.268
same,SSMD.CTG,[3]; [4],0.131
same,SSMD.CTG,[3]; [5],−0.190
same,SSMD.CTG,[3]; [6],−0.877
same,SSMD.CTG,[3]; [7],−1.581
O=C(Oc1cc(S(=O)(=O)c2ccccc2)ccc1[N+](=O)[O-])c1ccc(Cl)cc1 [BTB06584],Dose.FC.LYZ.S,"[1]; dose 0.08 uM, ENR+CD 6 days",0.222 log 2 fold change
same,Dose.FC.LYZ.S,"[1]; dose 0.40 uM, ENR+CD 6 days",0.042 log 2 fold change
same,Dose.FC.LYZ.S,"[1]; dose 2.00 uM, ENR+CD 6 days",0.039 log 2 fold change
same,Dose.FC.LYZ.S,"[1]; dose 10.00 uM, ENR+CD 6 days",0.019 log 2 fold change
same,Dose.FC.LYZ.NS,"[2]; dose 0.08 uM, ENR+CD 6 days",0.091 log 2 fold change
same,Z.LYZ.NS,[2]; [9],0.795
same,Dose.FC.LYZ.NS,"[2]; dose 0.40 uM, ENR+CD 6 days",0.025 log 2 fold change
same,Z.LYZ.NS,[2]; [10],0.214
same,Dose.FC.LYZ.NS,"[2]; dose 2.00 uM, ENR+CD 6 days",0.024 log 2 fold change
same,Z.LYZ.NS,[2]; [11],0.206
same,Dose.FC.LYZ.NS,"[2]; dose 10.00 uM, ENR+CD 6 days",−0.031 log 2 fold change
same,Z.LYZ.NS,[2]; [12],−0.268
same,Dose.FC.CTG,"[3]; dose 0.08 uM, ENR+CD 6 days",0.275 log 2 fold change
same,Z.CTG,[3]; [9],0.657
same,Dose.FC.CTG,"[3]; dose 0.40 uM, ENR+CD 6 days",0.288 log 2 fold change
same,Z.CTG,[3]; [10],0.688
same,Dose.FC.CTG,"[3]; dose 2.00 uM, ENR+CD 6 days",−0.180 log 2 fold change
same,Z.CTG,[3]; [11],−0.431
same,Dose.FC.CTG,"[3]; dose 10.00 uM, ENR+CD 6 days",0.199 log 2 fold change
same,Z.CTG,[3]; [12],0.475
CC(C)(C)c1cc(/C=C(\C#N)C(N)=S)cc(C(C)(C)C)c1O [Tyrphostin AG 879],"Dose.FC.LYZ.S (log 2 fold change, carbachol-induced lysozyme secretion)",[1]; dose 0.08 uM,−0.083
same,"Dose.FC.LYZ.S (log 2 fold change, carbachol-induced lysozyme secretion)",[1]; dose 0.40 uM,−0.084
same,"Dose.FC.LYZ.S (log 2 fold change, carbachol-induced lysozyme secretion)",[1]; dose 2.00 uM,−0.051
same,"Dose.FC.LYZ.S (log 2 fold change, carbachol-induced lysozyme secretion)",[1]; dose 10.00 uM,−0.123
same,Z.LYZ.NS (standard z score),[2]; dose 0.08 uM,0.088
same,"Dose.FC.LYZ.NS (log 2 fold change, basal lysozyme secretion)",[2]; dose 0.08 uM,0.010
same,Z.LYZ.NS (standard z score),[2]; dose 0.40 uM,−0.680
same,"Dose.FC.LYZ.NS (log 2 fold change, basal lysozyme secretion)",[2]; dose 0.40 uM,−0.078
same,Z.LYZ.NS (standard z score),[2]; dose 2.00 uM,−0.698
same,"Dose.FC.LYZ.NS (log 2 fold change, basal lysozyme secretion)",[2]; dose 2.00 uM,−0.080
same,Z.LYZ.NS (standard z score),[2]; dose 10.00 uM,−0.960
same,"Dose.FC.LYZ.NS (log 2 fold change, basal lysozyme secretion)",[2]; dose 10.00 uM,−0.110
same,Z.CTG (standard z score),[3]; dose 0.08 uM,−0.828
same,"Dose.FC.CTG (log 2 fold change, ATP)",[3]; dose 0.08 uM,−0.347
same,Z.CTG (standard z score),[3]; dose 0.40 uM,−0.569
same,"Dose.FC.CTG (log 2 fold change, ATP)",[3]; dose 0.40 uM,−0.238
same,Z.CTG (standard z score),[3]; dose 2.00 uM,−0.554
same,"Dose.FC.CTG (log 2 fold change, ATP)",[3]; dose 2.00 uM,−0.232
same,Z.CTG (standard z score),[3]; dose 10.00 uM,−0.879
same,"Dose.FC.CTG (log 2 fold change, ATP)",[3]; dose 10.00 uM,−0.368
